{"source": "patent US7256215B2", "about": "“Crystals of 5-hydroxycarbamimidoyl-2-hydroxybenzenesulfonamide derivative” (Kissei Pharmaceutical Co., Ltd., priority 2002, dated 2007)", "key": {"[1]": {"assay": "Oral bioavailability (statement, no method given)", "type": "in vivo"}, "prothrombin time (PT)": {"tested_on": "prothrombin time (PT)", "assay": "Prothrombin time (PT) in plasma of orally dosed rats", "type": "in vivo, Male Wistar rats", "settings": "PT after administration / before administration; rat plasma, oral, 6.0 mg/mL suspension, 5.0 mL/kg, 30 minutes", "description": "(Measurement of Activated Blood Coagulation Factor X Inhibitory Activity and Prothrombin Time (PT)) Male Wistar rats aged 6-9 weeks (SLC) fasted overnight were used. Test substances were suspended in 0.5% methylcellulose solution at the concentration of 6.0 mg/mL. Then 5.0 mL/kg of those was orally administrated into the rats. Then, 30 minutes before and after the administration of the test substances, citrated (1:10 dilution, 3.13% sodium citrate) bloods were collected from the jugular vein. Plasma samples were obtained by centrifugation. Effects of test substances on activated blood coagulation factor X and prothrombin time (PT) were investigated using the plasma samples according to the following procedures. 2) Prothrombin Time (PT). Fifty μL of plasma was put in the process tube and then incubated at 37° C. One minute later, 100 mu L of plasma PT reagent (Boehringer Mannheim) prewarmed at 37° C. was added into the mixture. PT was measured with a coagulometer (ST4, Boehringer Mannheim). The ratio of PT at each time point after administration of the test substance to that of before administration was used as the index of anticoagulation activity."}, "[2]": {"target": "T1, activated blood coagulation factor X (Homo sapiens, UniProt P00742)", "assay": "Activated blood coagulation factor X inhibitory activity in plasma of orally dosed rats", "type": "in vivo, Male Wistar rats", "design": "purchased Calbiochem", "settings": "rat plasma 30 minutes after oral administration; 6.0 mg/mL suspension in 0.5% methylcellulose, 5.0 mL/kg", "description": "(Measurement of Activated Blood Coagulation Factor X Inhibitory Activity and Prothrombin Time (PT))\nMale Wistar rats aged 6-9 weeks (SLC) fasted overnight were used. Test substances were suspended in 0.5% methylcellulose solution at the concentration of 6.0 mg/mL. Then 5.0 mL/kg of those was orally administrated into the rats. Then, 30 minutes before and after the administration of the test substances, citrated (1:10 dilution, 3.13% sodium citrate) bloods were collected from the jugular vein. Plasma samples were obtained by centrifugation. Effects of test substances on activated blood coagulation factor X and prothrombin time (PT) were investigated using the plasma samples according to the following procedures.\n1) Activated Blood Coagulation Factor X Inhibitory Activity\n2.5 μL of plasma sample, 200 μL of 100 mM tris-200 mM NaCl buffer (pH 8.4) and 10 μL of 0.06 U/mL human activated blood coagulation factor X (Calbiochem) in gelatin-glycine buffer were poured into 96 well microplate. […] The reaction was terminated with the addition of 50 μL of 60% acetic acid and absorbance (405 nm) was measured by a microplate reader (SPECTRAmax250, Molecular Devices). […] The inhibitory % of plasma sample was calculated from absorbance of the control as 100% and this value was used as the index of anti-activated blood coagulation factor X activity in plasma."}, "[3]": {"assay": "Storage stability test (residual rate by HPLC)", "type": "physicochemical", "settings": "hydrochloride; for Residual Rate (%): storage at 40° C./90% relative humidity for two months, HPLC; for Storage stability (in words): stored for a long period", "description": "(Storage Stability Test) Stability test was carried out under a storage condition of 40° C./90% relative humidity for two months for test substances. The residual rates of test substances were determined by HPLC according to the following conditions. HPLC Condition: • Detection wavelength; 225 nm • Column; CAPCELL PAK C18, MG 5 μm, 3.0 mm I.D.×250 mm • Column temperature; 35° C. • Mobile phase; • 0.02 mol/L phosphate buffer (pH 6.0): acetonitrile mixed solvent • 0→20 min; 42:58 • 20→40 min; 42:58→70:30 • 40→45 min; 70:30 • Flow rate; 0.5 mL/min"}, "[4]": {"assay": "Saturated water solubility", "type": "physicochemical", "settings": "for solubility: thermodynamic from solid, water", "description": "(Saturated Water Solubility) Approximately 40 mg of test substances is placed in a vessel, and approximately 15 mL of water is added thereto to suspend. The suspensions are warmed at 37° C. with stirring, and approximately 1 mL of aliquots is collected with time. Each of aliquots is filtered through a 0.45 μm filter. Thereafter, 500 μL is taken accurately from the filtrate, and 500 μL of a mixed solvent of water/acetonitrile (1/1) is added thereto to prepare a test solution. Five μL of the test solution is analyzed by a high performance liquid chromatography method according to the following conditions. Among water solubilities at each point of test solutions, the highest concentration is estimated as a saturated water solubility. HPLC Condition: • Detection wavelength; 225 nm • Column; Inertsil ODS-3, 5 μm, 4.6 mm I.D.×250 mm • Column temperature; 30° C. • Mobile phase; • 0.02 mol/L phosphate buffer (pH 3.0): acetonitrile mixed solvent • 0→30 min; 42:58 • Flow rate; […] • Measurement time; 30 min"}, "[5]": {"assay": "Storage under ordinary conditions, retention of crystalline form", "type": "physicochemical", "settings": "25° C./60% relative humidity, long period"}, "[6]": {"target": "T1, activated blood coagulation factor X", "assay": "Inhibitory activity against activated blood coagulation factor X (statement, no method given)", "type": "biochemical"}}, "note": "Where two headings read alike, the source gives them in different places."}
{"smiles": "CCCCOC(=O)COc1cc(-c2ccccc2S(C)(=O)=O)ccc1CCNS(=O)(=O)c1cc(C(=N)NO)ccc1O.Cl", "note": "[Example 1, n-butyl[4-[2-[2-hydroxy-5-(N-hydroxycarbamimidoyl)benzenesulfonylamino]ethyl]-2′-methanesulfonylbiphenyl-3-yloxy]acetate hydrochloride]", "values": [{"measurement": "Oral bioavailability (in words)", "setting": "[1]", "result": "good oral bioavailability"}, {"measurement": "Ratio of PT", "setting": "prothrombin time (PT)", "result": 1.50}, {"measurement": "inhibition at 6000 µg/mL (stock)", "setting": "[2]", "result": 58.2, "unit": "%"}, {"measurement": "Residual Rate (%)", "setting": "[3]", "result": 99.0, "unit": "%"}, {"measurement": "Storage stability (in words)", "setting": "[3]; listed as crystalline form B", "result": "good storage stabilities"}, {"measurement": "Water solubility (in words)", "setting": "[4]", "result": "highly water-soluble"}, {"measurement": "solubility", "setting": "[4]; 37° C., highest concentration over time, read-out: Saturated water solubility", "result": 1600, "unit": "µg/mL"}, {"measurement": "Stability of crystalline form on storage (in words)", "setting": "[5]", "result": "without changing its crystalline form"}]}
{"smiles": "CCCCOC(=O)COc1cc(-c2ccccc2S(C)(=O)=O)ccc1CCNS(=O)(=O)c1cc(C(=N)NO)ccc1O.Cl", "note": "[Reference Example 1, n-butyl[4-[2-[2-hydroxy-5-(N-hydroxycarbamimidoyl)benzenesulfonylamino]ethyl]-2′-methanesulfonylbiphenyl-3-yloxy]acetate hydrochloride]", "values": [{"measurement": "Residual Rate (%)", "setting": "[3]", "result": 96.8, "unit": "%"}, {"measurement": "Storage stability (in words)", "setting": "[3]; listed as crystalline form A", "result": "unsatisfactory stabilities"}]}
{"smiles": "CCCCOC(=O)COc1cc(-c2ccccc2S(C)(=O)=O)ccc1CCNS(=O)(=O)c1cc(C(=N)NO)ccc1O.Cl.O", "note": "[Reference Example 2, n-butyl[4-[2-[2-hydroxy-5-(N-hydroxy-carbamimidoyl)benzenesulfonylamino]ethyl]-2′-methanesulfonylbiphenyl-3-yloxy]acetate hydrochloride monohydrate]", "values": [{"measurement": "Water solubility (in words)", "setting": "[4]", "result": "poor water solubility"}, {"measurement": "solubility", "setting": "[4]; 37 °C", "result": 270, "unit": "µg/mL"}]}
{"smiles": "CCCCOC(=O)COc1cc(-c2ccccc2S(C)(=O)=O)ccc1CCNS(=O)(=O)c1cc(C(=N)NO)ccc1O.Cl", "note": "[formula (I), n-Butyl[4-[2-[2-hydroxy-5-(N-hydroxycarbamimidoyl)benzenesulfontylamino]ethyl]-2′-methanesulfonylbiphenyl-3-yloxy]acetate hydrochloride]", "values": [{"measurement": "Inhibitory activities against activated blood coagulation factor X (in words)", "setting": "[6]", "result": "excellent inhibitory activities"}]}
